The test system of one series is Liver. Nature of the series: Drug level in human liver microsomes treated with 6-tert-butyl-8-fluoro-2-(2-(hydroxymethyl)-3-(1-methyl-5-(5-(methylsulfonyl)pyridin-2-ylamino)-6-oxo-1,6-dihydropyridin-3-yl)phenyl)phthalazin-1(2H)-one by UPLC-MS/MS method. The format is ADME, microsome.
Settings: not given
On the technique in general: Liver microsomes are vesicles of endoplasmic reticulum, rich in cytochrome P450 enzymes.
Take `CN1C(=O)/C(=N/c2ccc(S(C)(=O)=O)cn2)C=C(c2cccc(-n3ncc4cc(C(C)(C)CO)cc(F)c4c3=O)c2CO)C1SC[C@H](NC(=O)CC[C@H](N)C(=O)O)C(=O)NCC(=O)O` (stereo not given in full): the Drug metabolism entry is recorded as “Metabolite_Detected”. Same read-out and setting: then `CN1C(=O)/C(=N/c2ccc(S(C)(=O)=O)cn2)C=C(c2cccc(-n3ncc4cc(C(C)(C)C)cc(F)c4c3=O)c2CO)C1SC[C@H](NC(=O)CC[C@H](N)C(=O)O)C(=O)NCC(=O)O` (stereo not given in full), with “Metabolite_Detected”.

For a further series, the system named is Liver. The experiment in a line: Drug metabolism in human liver microsomes assessed as covalent binding per mg protein at 10 uM preincubated for 5 mins followed by NADPH addition measured after 30 mins by liquid scintillation counting. The format is ADME, microsome. The note with it: 0.5 h.
For the compound `CN1CCN(c2ccc(Nc3cc(-c4cccc(-n5ccc6cc(C7CC7)cc(F)c6c5=O)c4CO)cn(C)c3=O)nc2)CC1`, the Drug metabolism came out at 294 pmol. Same read-out and setting: the result for `Cn1cc(-c2cccc(-n3ncc4cc(C(C)(C)C)cc(F)c4c3=O)c2[14CH2]O)cc(Nc2ccc(C(=O)N3CCOCC3)cn2)c1=O` reads 294 pmol; that for `Cn1cc(-c2cccc(-n3ncc4cc(C(C)(C)C)cc(F)c4c3=O)c2[14CH2]O)cc(Nc2ccc(S(C)(=O)=O)cn2)c1=O`, 386 pmol.

Take `Cn1nc(-c2cccc(-n3ncc4cc(C(C)(C)C)cc(F)c4c3=O)c2[14CH2]O)cc(Nc2ccc(C(=O)N3CCOCC3)cn2)c1=O`: the Drug metabolism was found to be 26 pmol.

For `CN1CCN(c2ccc(Nc3cc(-c4cccc(-n5ncc6cc(C(C)(C)C)cc(F)c6c5=O)c4[14CH2]O)cn(C)c3=O)nc2)CC1`, the Drug metabolism was 459 pmol. As to `CN(C)c1ccc2c(c1)CCN(c1cccc(-c3cc(Nc4ccc(C(=O)N5CCOCC5)cn4)c(=O)n(C)c3)c1[14CH2]O)C2=O`, the Drug metabolism is given as 52 pmol. With `Cn1cc(-c2cccc(N3CCc4cc(C(C)(C)C)ccc4C3=O)c2[14CH2]O)cc(Nc2ccc(C(=O)N3CCOCC3)cn2)c1=O`, the Drug metabolism worked out at 422 pmol.

A further series concerns Liver. Nature of the series: Drug metabolism in human liver microsomes assessed as covalent binding per mg protein at 10 uM in absence of NADPH measured after 30 mins by liquid scintillation counting. The format is ADME, microsome. The following applies: 0.5 h.
As for `CN1CCN(c2ccc(Nc3cc(-c4cccc(-n5ncc6cc(C(C)(C)C)cc(F)c6c5=O)c4[14CH2]O)cn(C)c3=O)nc2)CC1`, the Drug metabolism was found to be 49 pmol.

These data come from ChEMBL document CHEMBL4000210, “Mitigation of reactive metabolite formation for a series of 3-amino-2-pyridone inhibitors of Bruton's tyrosine kinase (BTK)” (Bioorg Med Chem Lett, 2017).
